“Also recorded” adds a separate entry of the source.
Test system: human leutecyte strain cell (RPMI-8402)
Test: Extinction effect of compatible administration of l-OHP and a compatible agent on tumor cells (compatible efficiency OE)
Format: cell-based
Details: for Compatible Effects of l-OHP and Compatible Agent, Simultaneous Administration: both added day 1
Experimental: In the evaluation of the extinction effect of the tumor cells of the respective combinations, a pure extinction effect produced by the compatible administration of the compatible agent and the l-OHP is calculated by subtracting an extinction effect of a control (no carcinostatic substance is employed).
The compatibly administration effect is calculated by employing an Equation (1) described later. When the value (%) calculated by this Equation is between 85 and 115%, the compatible administration effect is evaluated to be an additive effect. When the value is below 85%, it is evaluated to be below the additive effect. When the value is over 115%, it is evaluated to be a synergistic effect, ±15% is a reliability limit or a measurement error.
A target tumor cell was a human leutecyte strain cell (RPMI-8402 of Gibuko K.K.). To these cells was added blood serum of a cow embryo (15%, Gibuko K.K.) to prepare a cell floating liquid of which the number of the cells was 10^6/ml in a cultivation bottle (tradename; Sumiron of Sumitomo Bakelite o., Ltd.) having a volume of 6 ml. A plenty of the cultivation bottles having the cell floating liquid therein were prepared, and the following experiments were conducted while selecting one kind of a compatible agent among cisplatin, 5-FU, irinotecane, adriamycin, etoposide, mitomycin, mitoxantrone, bleomycin, vincristin and vindecin. The time schedules of the controls (no addition of medicines, addition of only the l-OHP and addition of only a compatible agent, and specified in the below items (1) to (4)) and of the compatible administration of the compatible agent and the l-OHP are shown in FIG. 10.
(1) No medicine was added (control).
(2) Only the l-OHP was added at a second day.
(3) A large amount of compatible agents were added at a first day ([…] of the cisplatin, 10 μg/ml of the 5-FU, 0.05 μg/ml of the adriamycin and 1 μg/ml of the etoposide, and for the comparison purpose, 0.05 μg/ml of the vincristin and 0.06 μg/ml of the vindecin). The adding amount of the irinotecano was fixed to 10 μg/ml, and the addition amount of the l-OHP was 5 μg/ml.
(4) A small amount of compatible agents were added at a first day (0.5 μg/ml of the cisplatin, 5 μg/ml of the 5-FU, 0.01 μg/ml of the adriamycin and 0.5 μg/ml of the etoposide, and for the comparison purpose, 0.01 μg/ml of the vincristin and 0.01 μg/ml of the vindecin). The adding amount of the irinotecane was fixed to 10 μg/ml, and the addition amount of the l-OHP was 1 μg/ml.
(5) The l-OHP and a large amount (the same as that of the above item (3) and so forth in the following items) of the compatible agents were simultaneously added at a first day.
(6) The l-OHP and a small amount (the same as that of the above item (4) and so forth in the following items) of the compatible agents were simultaneously added at a first day.
(7) The l-OHP was added at a first day and a large amount of the compatible agents were added at a second day.
(8) The l-OHP was added at a first day and a small amount of the compatible agents were added at a second day.
(9) The l-OHP was added at a first day and a large amount of the compatible agents were added at a third day.
(10) The l-OHP was added at a first day and a small amount of the compatible agents were added at a third day.
(11) The l-OHP was added at a first day and a large amount of the compatible agents were added at a fourth day.
(12) The l-OHP was added at a first day and a small amount of the compatible agents were added at a fourth day.
(13) A large amount of the compatible agents were added at a first day and the l-OHP was added at a second day.
(14) A small amount of the compatible agents were added at a first day and the l-OHP was added at a second day.
(15) A large amount of the compatible agents were added at a first day and the l-OHP was added at a third day.
(16) A small amount of the compatible agents were added at a first day and the l-OHP was added at a third day.

[1] = larger dosage of compatible agent (μg/ml: cisplatin 1, 5-FU 10, irinotecane 10, adriamycin 0.05, vincristin 0.05, vindecin 0.05, etoposide 1, bleomycin 10, mitoxantrone 0.1, mitomycine 1), l-OHP 1 μg/ml (5 μg/ml with irinotecane) added day 1
[2] = larger dosage of compatible agent (μg/ml: cisplatin 1, 5-FU 10, irinotecane 10, adriamycin 0.05, vincristin 0.05, vindecin 0.05, etoposide 1, bleomycin 10, mitoxantrone 0.1, mitomycine 1), l-OHP 1 μg/ml (5 μg/ml with irinotecane)
[3] = larger dosage of compatible agent added day 1 (μg/ml: cisplatin 1, 5-FU 10, irinotecane 10, adriamycin 0.05, vincristin 0.05, vindecin 0.05, etoposide 1, bleomycin 10, mitoxantrone 0.1, mitomycine 1), l-OHP 1 μg/ml (5 μg/ml with irinotecane)
[4] = smaller dosage of compatible agent (μg/ml: cisplatin 0.5, 5-FU 5, irinotecane 10, adriamycin 0.01, vincristin 0.01, vindecin 0.01, etoposide 0.5, bleomycin 1, mitoxantrone 0.05, mitomycine 0.5), l-OHP 1 μg/ml added day 1
[5] = smaller dosage of compatible agent (μg/ml: cisplatin 0.5, 5-FU 5, irinotecane 10, adriamycin 0.01, vincristin 0.01, vindecin 0.01, etoposide 0.5, bleomycin 1, mitoxantrone 0.05, mitomycine 0.5), l-OHP 1 μg/ml
[6] = smaller dosage of compatible agent added day 1 (μg/ml: cisplatin 0.5, 5-FU 5, irinotecane 10, adriamycin 0.01, vincristin 0.01, vindecin 0.01, etoposide 0.5, bleomycin 1, mitoxantrone 0.05, mitomycine 0.5), l-OHP 1 μg/ml

Row | Molecule | compatible administration effect with l-OHP, summary in words | Compatible Effects of l-OHP and Compatible Agent, Time Lag Administration, Addition Administration of Compatible Agent day 2 [1] | Compatible Effects of l-OHP and Compatible Agent, Time Lag Administration, Addition Administration of Compatible Agent day 3 [1] | Compatible Effects of l-OHP and Compatible Agent, Time Lag Administration, Addition Administration of Compatible Agent day 4 [1] | Compatible Effects of l-OHP and Compatible Agent, Simultaneous Administration [2] | Compatible Effects of l-OHP and Compatible Agent, Time Lag Administration, Addition Administration of l-OHP day 2 [3] | Compatible Effects of l-OHP and Compatible Agent, Time Lag Administration, Addition Administration of l-OHP day 3 [3] | Compatible Effects of l-OHP and Compatible Agent, Time Lag Administration, Addition Administration of l-OHP day 4 [3] | Compatible Effects of l-OHP and Compatible Agent, Time Lag Administration, Addition Administration of Compatible Agent day 2 [4] | Compatible Effects of l-OHP and Compatible Agent, Time Lag Administration, Addition Administration of Compatible Agent day 3 [4] | Compatible Effects of l-OHP and Compatible Agent, Time Lag Administration, Addition Administration of Compatible Agent day 4 [4] | Compatible Effects of l-OHP and Compatible Agent, Simultaneous Administration [5] | Compatible Effects of l-OHP and Compatible Agent, Time Lag Administration, Addition Administration of l-OHP day 2 [6] | Compatible Effects of l-OHP and Compatible Agent, Time Lag Administration, Addition Administration of l-OHP day 3 [6] | Compatible Effects of l-OHP and Compatible Agent, Time Lag Administration, Addition Administration of l-OHP day 4 [6]
1 | bleomycin | the additive effect or the synergistic effect regardless of the administration method and the dosage in almost all the cases; also recorded: synergistic effects can be obtained in most combinations when the l-OHP is added later at a third day and a fourth day | Δ (Δ: Below Additive Effect) | ◯ (◯: Additive Effect) | • (•: Synergistic Effect) | Δ (Δ: Below Additive Effect) | Δ (Δ: Below Additive Effect) | • (•: Synergistic Effect) | • (•: Synergistic Effect) | Δ (Δ: Below Additive Effect) | • (•: Synergistic Effect) | Δ (Δ: Below Additive Effect) | • (•: Synergistic Effect) | ◯ (◯: Additive Effect) | • (•: Synergistic Effect) | ◯ (◯: Additive Effect)
2 | O=C1c2c(O)ccc(O)c2C(=O)c2c(NCCNCCO)ccc(NCCNCCO)c21 [mitoxantrone] | the additive effect or the synergistic effect regardless of the administration method and the dosage in almost all the cases; also recorded: synergistic effects can be obtained in all the combinations when a small amount of the mitoxantrone is employed and the l-OHP is added later | • (•: Synergistic Effect) | ◯ (◯: Additive Effect) | Δ (Δ: Below Additive Effect) | ◯ (◯: Additive Effect) | ◯ (◯: Additive Effect) | ◯ (◯: Additive Effect) | ◯ (◯: Additive Effect) | ◯ (◯: Additive Effect) | • (•: Synergistic Effect) | Δ (Δ: Below Additive Effect) | • (•: Synergistic Effect) | • (•: Synergistic Effect) | • (•: Synergistic Effect) | • (•: Synergistic Effect)
